Test results: the NIST ThermoML archive (doi:10.1021/acs.jced.7b00503)

Assay: wn = mass fraction of the nth substance listed
Settings: Pendant drop shape

[Cl-].[Na+] [sodium chloride] + O
surface tension liquid-gas [mN/m]
Settings | w1 = 0.025 | w1 = 0.05 | w1 = 0.075 | w1 = 0.1 | w1 = 0.125 | w1 = 0.15 | w1 = 0.175 | w1 = 0.2 | w1 = 0.225 | w1 = 0.25
293.15 K | 73.42 | 74.09 | 74.85 | 75.6 | 76.54 | 77.52 | 78.7 | 79.82 | 81.03 | 81.95
298.15 K | 72.63 | 73.32 | 74.15 | 74.9 | 75.8 | 76.7 | 77.82 | 78.85 | 80.32 | 81.41
303.15 K | 71.83 | 72.56 | 73.35 | 74.17 | 75.09 | 76.11 | 77.2 | 78.26 | 79.77 | 80.8
313.15 K | 70.33 | 71.12 | 71.95 | 72.81 | 73.86 | 74.9 | 75.98 | 76.99 | 78.54 | 79.7
323.15 K | 68.93 | 69.91 | 70.62 | 71.32 | 72.46 | 73.55 | 74.68 | 75.71 | 77.32 | 78.45
333.15 K | 67.21 | 68.24 | 69.21 | 70.14 | 71.18 | 72.22 | 73.43 | 74.52 | 76.01 | 77.14

O [water] + [Cl-].[K+]
w2 = 0
Settings | surface tension liquid-gas [mN/m]
293.15 K | 72.75
303.15 K | 71.15
313.15 K | 69.55
323.15 K | 67.9
333.15 K | 66.17
343.15 K | 64.39
353.15 K | 62.61

[Br-].[Na+] [sodium bromide] + O
surface tension liquid-gas [mN/m]
Settings | w1 = 0.05 | w1 = 0.1 | w1 = 0.15 | w1 = 0.2 | w1 = 0.25 | w1 = 0.3 | w1 = 0.35 | w1 = 0.4
293.15 K | 74.11 | 75.5 | 76.51 | 77.4 | 78.93 | 80.32 | 82 | 83.5
303.15 K | 72.43 | 73.5 | 74.83 | 75.4 | 77.25 | 78.62 | 80.31 | 81.93
313.15 K | 70.75 | 72 | 73.14 | 74.1 | 75.68 | 77.05 | 78.73 | 80.36
323.15 K | 69.07 | 70 | 71.36 | 72.6 | 74 | 75.26 | 77.05 | 78.56
333.15 K | 67.28 | 68.4 | 69.67 | 70.8 | 72.31 | 73.6 | 75.37 | 76.87
343.15 K | 65.49 | 66.4 | 67.85 | 69.5 | 70.52 | 71.87 | 73.9 | 75.73
353.15 K | 63.71 | 64.73 | 65.99 | 67.34 | 68.6 | 70.06 | 71.81 | 73.32

O [water] + [Br-].[K+]
w2 = 0
Settings | surface tension liquid-gas [mN/m]
293.15 K | 72.75
303.15 K | 71.15
313.15 K | 69.55
323.15 K | 67.9
333.15 K | 66.17
343.15 K | 64.39
353.15 K | 62.61

O [water] + [I-].[K+]
w2 = 0
Settings | surface tension liquid-gas [mN/m]
293.15 K | 72.75
298.15 K | 71.97
303.15 K | 71.15
313.15 K | 69.55
323.15 K | 67.9
333.15 K | 66.17
